Laboratory results taken from the supplement of paper PMC11061612.

How the values were obtained:
Assay in all cases: combination Emax (second highest fraction inhibited in the dose matrix, 72 h); higher = more inhibition; extreme values may be limits of the assay
[1] = tested on: HSC-4 (Oral Cavity Carcinoma)
Summary of the method: (§1)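 After 24 hours at 37°C and 5% CO2 in 1536-well plates, cells in DMEM/F12 or RPMI plus 10% FBS received two-drug dose matrices for 72 hours. Viability came from CellTiter-Glo 2.0 luminescence and was scaled as inhibition, anchored at 0 by vehicle wells and at 1 by blank wells. Combination Emax is taken as the second-highest inhibition in the matrix, and Bliss excess as the observed combination effect less EA + EB − EA·EB, with EA and EB the single-agent effects.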

TGW (Neuroblastoma) = tested on: TGW (Neuroblastoma)
Summary of the method: as §1

[2] = tested on: HGC-27 (Gastric Carcinoma)
Summary of the method: as §1

[3] = tested on: OE19 (Esophageal Adenocarcinoma)
Summary of the method: as §1

[4] = tested on: KYSE-450 (Esophageal Squamous Cell Carcinoma)
Summary of the method: as §1

[5] = tested on: NCI-H358 (Lung Adenocarcinoma)
Summary of the method: as §1

TK10 (Kidney Carcinoma) = tested on: TK10 (Kidney Carcinoma)
Summary of the method: as §1

[6] = tested on: NCI-H727 (Other Solid Carcinomas)
Summary of the method: as §1

[7] = tested on: OSC-20 (Oral Cavity Carcinoma)
Summary of the method: as §1

[8] = tested on: MLMA (Other Blood Carcinomas)
Summary of the method: as §1

[9] = tested on: AMO-1 (Plasma Cell Myeloma)
Summary of the method: as §1

[10] = tested on: SU8686 (Pancreatic Carcinoma)
Summary of the method: as §1

[11] = tested on: OVCAR-4 (Ovarian Carcinoma)
Summary of the method: as §1

[12] = tested on: NCI-H1915 (Non-Small Cell Lung Carcinoma)
Summary of the method: as §1

ACHN (Kidney Carcinoma) = tested on: ACHN (Kidney Carcinoma)
Summary of the method: as §1

[13] = tested on: LU-65 (Non-Small Cell Lung Carcinoma)
Summary of the method: as §1

[14] = tested on: Hs-766T (Pancreatic Carcinoma)
Summary of the method: as §1

[15] = tested on: NUGC-3 (Gastric Carcinoma)
Summary of the method: as §1

[16] = tested on: Caov-4 (Ovarian Carcinoma)
Summary of the method: as §1

[17] = tested on: TE-1 (Esophageal Squamous Cell Carcinoma)
Summary of the method: as §1

| SMILES | combination Emax [1] | combination Emax (TGW (Neuroblastoma)) | combination Emax [2] | combination Emax [3] | combination Emax [4] | combination Emax [5] | combination Emax (TK10 (Kidney Carcinoma)) | combination Emax [6] | combination Emax [7] | combination Emax [8] | combination Emax [9] | combination Emax [10] | combination Emax [11] | combination Emax [12] | combination Emax (ACHN (Kidney Carcinoma)) | combination Emax [13] | combination Emax [14] | combination Emax [15] | combination Emax [16] | combination Emax [17] |
| --- | --- | --- | --- | --- | --- | --- | --- | --- | --- | --- | --- | --- | --- | --- | --- | --- | --- | --- | --- | --- |
| CC1(C)CCC(CN2CCN(c3ccc(C(=O)NS(=O)(=O)c4ccc(NCC5CCOCC5)c([N+](=O)[O-])c4)c(Oc4cnc5[nH]ccc5c4)c3)CC2)=C(c2ccc(Cl)cc2)C1 [Venetoclax] + CCN(CCO)CCCOc1ccc2c(Nc3cc(CC(=O)Nc4cccc(F)c4)[nH]n3)ncnc2c1 [AZD2811] (first compound max 1 µM, 7x7, partner max 1 µM) | 0.203 | 0.568 | 0.809 | 0.779 | 0.27 | 0.276 | 0.16 | 0.317 | 0.336 | 0.841 | 0.816 | 0.158 | 0.333 | 0.224 | 0.739 | 0.249 | 0.291 | 0.298 | 0.263 | 0.298 |
| CC(=O)c1c(C)c2cnc(Nc3ccc(N4CCNCC4)cn3)nc2n(C2CCCC2)c1=O [Palbociclib] + Cc1c2c(nn1C)CSCc1cc(n(C)n1)CSc1cc(c3ccccc3c1)OCCCc1c(C(=O)O)n(C)c3c-2c(Cl)ccc13 [AZD5991] (first compound max 10 µM, 7x7, partner max 1 µM) | 0.106 | 0.24 | 0.715 | 0.664 | 0.263 | 0.363 | 0.353 | 0.311 | 0.168 | 0.784 | 1 | 0.0791 | 0.191 | 0.447 | 0.626 | 0.281 | 0.404 | 0.572 | 0.602 | 0.194 |
| C[C@@H]1COCCN1c1cc(C2([S@](C)(=N)=O)CC2)nc(-c2ccnc3[nH]ccc23)n1 [AZD6738] + O=C(c1cc(Cc2n[nH]c(=O)c3ccccc23)ccc1F)N1CCN(C(=O)C2CC2)CC1 [Olaparib] (first compound max 10 µM, 7x7, partner max 10 µM) | 0.691 | 0.731 | 0.902 | 0.55 | 0.608 | 0.544 | 0.471 | 0.384 | 0.387 | 0.988 | 0.866 | 0.288 | 0.664 | 0.557 | 0.988 | 0.751 | 0.554 | 0.778 | 0.969 | 0.319 |
| NC1(C(=O)N[C@@H](CCO)c2ccc(Cl)cc2)CCN(c2ncnc3[nH]ccc23)CC1 [Capivasertib] + COc1nnc2ccc(N3CCC(c4ccc(OCCN5CCN(C)C(=O)[C@H]5C)cc4)CC3)nn12 [AZD5153] (first compound max 10 µM, 7x7, partner max 1 µM) | 0.529 | 0.867 | 0.972 | 0.656 | 0.324 | 0.585 | 0.63 | 0.434 | 0.296 | 0.994 | 0.911 | 0.0398 | 0.398 | 0.588 | 0.672 | 0.536 | 0.457 | 0.617 | 0.526 | 0.485 |
| NC1(C(=O)N[C@@H](CCO)c2ccc(Cl)cc2)CCN(c2ncnc3[nH]ccc23)CC1 [Capivasertib] + Cn1cnc2c(F)c(Nc3ccc(Br)cc3Cl)c(C(=O)NOCCO)cc21 [Selumetinib] (first compound max 10 µM, 7x7, partner max 10 µM) | 0.609 | 0.262 | 0.841 | 0.573 | 0.547 | 0.585 | 0.534 | 0.729 | 0.451 | 0.513 | 0.801 | 0.26 | 0.338 | 0.791 | 0.49 | 0.729 | 0.591 | 0.662 | 0.613 | 0.49 |
| COc1cccc2c1C(=O)c1c(O)c3c(c(O)c1C2=O)C[C@@](O)(C(=O)CO)C[C@@H]3O[C@H]1C[C@H](N)[C@H](O)[C@H](C)O1 [Doxorubicin] + Cc1cc2ncnn2cc1Nc1ncc2c(n1)n(C1CCOCC1)c(=O)n2C [AZD7648] (first compound max 1 µM, 7x7, partner max 10 µM) | 0.437 | 0.497 | 0.928 | 0.514 | 0.801 | 0.821 | 0.773 | 0.147 | 0.563 | 0.893 | 0.973 | 0.203 | 0.451 | 0.486 | 0.913 | 0.889 | 0.43 | 0.907 | 0.913 | 0.736 |
